Measurements as given in patent publication US10336691B2, “Pesticidally active oxime and hydrazone derivatives” (Syngenta Participations AG, priority 2015, dated 2019).
Read-outs that look alike come from different tables or passages of the source.

Tests used:
Plutella xylostella = Plutella xylostella (diamond back moth) artificial diet test, L2 larvae; assay type: in vivo; conditions: 120 h, read-out: effect in at least one of the two categories (mortality or growth inhibition); for percent effect (mortality or growth inhibition) at 200 ppm: application rate of 200 ppm, 5 days after infestation, in comparison to untreated samples
Description: Plutella xylostella (Diamond Back Moth)
(§1) 24-well microtiter plates with artificial diet were treated with aqueous test solutions prepared from 10,000 ppm DMSO stock solutions by pipetting. After drying, the plates were infested with L2 larvae (10 to 15 per well). The samples were assessed for mortality and growth inhibition in comparison to untreated samples 5 days after infestation.

Spodoptera littoralis = Spodoptera littoralis (Egyptian cotton leaf worm) cotton leaf disc spray test, L1 larvae; assay type: in vivo; conditions: foliar, 72 h, read-out: control (at least one of mortality, anti-feedant effect, and growth inhibition)
Description: Spodoptera littoralis (Egyptian Cotton Leaf Worm)
Cotton leaf discs were placed on agar in 24-well microtiter plates and sprayed with aqueous test solutions prepared from 10,000 ppm DMSO stock solutions. After drying, the leaf discs were infested with five L1 larvae. The samples were assessed for mortality, anti-feedant effect, and growth inhibition in comparison to untreated samples 3 days after infestation. Control of Spodoptera littoralis by a test sample is when at least one of mortality, anti-feedant effect, and growth inhibition is higher than the untreated sample.

Diabrotica balteata = Diabrotica balteata (corn root worm) maize sprout spray test, L2 larvae; assay type: in vivo; conditions: 96 h, read-out: effect in at least one of the two categories (mortality or growth inhibition); for percent effect (mortality or growth inhibition) at 200 ppm: application rate of 200 ppm, 4 days after infestation, in comparison to untreated samples
Description: Diabrotica balteata (Corn Root Worm)
as §1, with “Maize sprouts, placed on an agar layer in 24-well” for “24-well”, “plates” for “plates with artificial diet”, “spraying.” for “pipetting.”, “(6” for “(10”, “10” for “15”, “4” for “5”

[1] = application rate of 200 ppm, 3 days after infestation, in comparison to untreated samples

Compound	percent effect (mortality or growth inhibition) at 200 ppm (Plutella xylostella)	mortality at 200 ppm (Spodoptera littoralis; [1])	percent effect (mortality or growth inhibition) at 200 ppm (Diabrotica balteata)	melting point	percent control (mortality or growth inhibition) at 200 ppm (Plutella xylostella)	mortality at 200 ppm (Spodoptera littoralis)	percent control (mortality or growth inhibition) at 200 ppm (Diabrotica balteata)
Cc1cccc(C)c1NC(=S)N/N=C/c1ccc(N/N=C2\CCc3cc(OC(F)(F)F)ccc32)cc1 [Compound 11, 1-(2,6-dimethylphenyl)-3-[[4-[2-[5-(trifluoromethoxy)indan-1-ylidene]hydrazino]phenyl]methylene-amino]thiourea]	≥ 80%	≥ 80%	≥ 80%				
C/C(=N\Nc1ccc(/C=N/NC(=O)Nc2c(C)cccc2C)cc1)c1ccccc1OC(F)(F)F				215 to 224 °C			
CC/C(=N\Nc1ccc(/C=N/NC(=S)Nc2ccccc2C(C)C)cc1)c1ccc(C(F)(F)F)cc1 [Compound 26, 1-(2-isopropylphenyl)-3-[(E)-[4-[(2E)-2-[1-[4-(trifluoromethyl)phenyl]propylidene] hydrazino]phenyl]methyleneamino] thiourea]	≥ 80%	≥ 80%	≥ 80%				
C/C(=N\Oc1ccc(/C=N/OC(=O)Nc2c(C)cccc2C)cc1)c1ccc(OC(F)(F)F)cc1 [Compound 2, [[4-[1-[4-(trifluoromethoxy)phenyl]ethylidene-amino]oxyphenyl]methyleneamino] N-(2,6-dimethylphenyl) carbamate]					≥ 80%	≥ 80%	≥ 80%
C/C(=N\Oc1ccc(/C=N/NC(=O)Nc2c(C)cccc2C)cc1)c1ccc(OC(F)(F)F)cc1 [Compound 7, 1-(2,6-dimethylphenyl)-3-[[4-[1-[4-(trifluoromethoxy)phenyl]ethylidene-amino]oxyphenyl]methylene-amino]urea]	≥ 80%	≥ 80%	≥ 80%				
C/C(=N\Nc1ccc(/C=N/NC(=S)Nc2c(C)cccc2C)cc1)c1ccc(C(F)(F)F)cc1 [Compound 22, 1-(2,6-dimethylphenyl)-3-[(E)-[4-[(2E)-2-[1-[4-(trifluoromethyl)phenyl]ethylidene] hydrazino]phenyl]methyleneamino] thiourea]	≥ 80%	≥ 80%	≥ 80%				
C/C(=N\Nc1ccc(/C=N/NC(=O)Nc2c(C)cccc2C)cc1)c1ccc(C(F)(F)F)cc1 [Compound 21, 1-(2,6-dimethylphenyl)-3-[(E)-[4-[(2E)-2-[1-[4-(trifluoromethyl)phenyl]ethylidene] hydrazino]phenyl]methyleneamino] urea]	≥ 80%	≥ 80%	≥ 80%				
CC(C)c1ccccc1NC(=S)N/N=C/c1ccc(O/N=C2\CCc3cc(OC(F)(F)F)ccc32)cc1 [Compound 5, 1-(2-isopropylphenyl)-3-[[4-[[5-(trifluoromethoxy)indan-1-ylidene]amino]oxyphenyl]methylene-amino]thiourea]	≥ 80%	≥ 80%	≥ 80%				
CC(C)c1ccccc1NC(=O)N/N=C/c1ccc(O/N=C2\CCc3cc(OC(F)(F)F)ccc32)cc1 [Compound 4, 1-(2-isopropylphenyl)-3-[[4-[[5-(trifluoromethoxy)indan-1-ylidene]amino]oxyphenyl]methylene-amino]urea]	≥ 80%	≥ 80%	≥ 80%				
CC/C(=N\Nc1ccc(/C=N/NC(=S)Nc2c(C)cccc2C)cc1)c1ccc(C(F)(F)F)cc1 [Compound 28, 1-(2,6-dimethylphenyl)-3-[(E)-[4-[(2E)-2-[1-[4-(trifluoromethyl)phenyl]propylidene] hydrazino]phenyl]methyleneamino] thiourea]	≥ 80%	≥ 80%	≥ 80%				
Cc1cccc(C)c1NC(=O)N/N=C/c1ccc(O/N=C2\CCc3cc(OC(F)(F)F)ccc32)cc1 [Compound 1, 1-(2,6-dimethylphenyl)-3-[[4-[[5-(trifluoromethoxy)indan-1-ylidene]amino]oxyphenyl]methylene-amino]urea]	≥ 80%	≥ 80%	≥ 80%				
